As a reminder, the IC50 is the point on the concentration scale where inhibition reaches its midpoint. Low values mean greater potency, high ones weaker potency.

One assay concerns human sebocyte cell line. The assay can be described thus: Nile Red Neutral Lipid Accumulation Assay. Type of assay: cell-based. The settings on record: day 3 of treatment, with 1 μM T0901317 and 1 μM insulin. As for the experimental part:
This assay examines the ability of compounds to stimulate or inhibit lipid accumulation in human sebocyte cell line. Cells were seeded in tissue culture treated black clear bottom plates. Compounds were added in the presence of Liver X Receptor (LXR) agonist (T0901317) and 1 μM insulin for 3 days and 5 days. For the 5 day treatment fresh compounds were added at Day 3. After the treatment period nile red dye was added and the relative fluorescence determined for both total and neutral lipids. The neutral/total lipid ratio was calculated and obtained values were normalized to both the Cell Titer Blue viability reagent.
Protocol—Day 1: Human immortalized sebocytes were seeded at 10,000 cells/well in 96-well black, clear bottom plates in Sebocyte Growth Medium and allowed to attach overnight at 37° C. […] 3) The relative fluorescence (RFU) of the incorporated stain was determined under 2 parameters: 540ex/620em with no cutoff (Total Lipid), and 485ex/555em with a 515 cutoff (Neutral Lipid) using bottom reads. […] Cell titer blue reagent (100 was then added to each well and the cells were allowed to incubate for 2 hours at 37° C., 5% CO2. 5) The RFU value was determined at 560ex/590em with a 570 cutoff using a top read.
Data Analysis—Cell viability is presented as cell titer blue fluorescence reading (RFU) for each treatment. […] Minimum and maximum values are determined by UNT and LXR+INS controls. […]

Assay [1] concerns Human immortalized sebocytes. The assay is described as follows: Cleaved Caspase 3 Assay. The settings on record: for cleaved caspase 3: any concentration, 2, 3 and 5 day treatment; for sebocyte apoptosis: conditions of this in vitro assay. It is filed as cell-based. As for the experimental part:
This assay examines the ability of compounds to induce apoptosis by measuring Caspase 3 generated by proteolytic processing. Cells were seeded in tissue culture treated clear bottom plates. Compounds were added in the presence of Liver X Receptor (LXR) agonist (T0901317) and 1 μM insulin for 2, 3 and 5 days. For the 5 day treatment fresh compounds were added at Day 3. After the treatment period lysates were prepared according to the manufacturer's instructions and frozen at −80° C. until the day of the assay.
Protocol—Day 1: Human immortalized sebocytes were seeded at 10,000 cells/well in 96-well, clear bottom plates in Sebocyte Growth Medium and allowed to attach overnight at 37° C. Day 2: Medium was refreshed by removing seeding medium and adding fresh Sebocyte Growth Medium. Cells were maintained at 37° C. to allow degradation of the temperature sensitive SV40 large T antigen. Day 4: 1000× stocks (in DMSO) of each compound were prepared (3 mM and 100 μM) and were diluted 1:1000 in Sebocyte Treatment Media containing 1 μM T0901317 and 1 μM Insulin to give a final top concentration of 3000 nM and 100 nM for further 10-fold dilutions in the same medium according to the plate map below. The cell medium was removed and replaced with Sebocyte Treatment Medium containing 1 μM T0901317, 1 μM Insulin, compound dilution, or vehicle (DMSO) as per plate maps for a 2, 3 and 5 day treatment. For untreated controls, media was removed and replaced with Sebocyte Treatment Media only (no T091317 or Insulin). For the 5 day treatment cells were retreated as described above on Day 7. Day 6, 7 or Day 9: 1) After treatment, the plate was centrifuged at 300×g for 10 minutes. 2) After centrifugation, the medium was removed the cells rinsed with ice-cold PBS and then centrifuged again at 300×g for 10 minutes. 3) After centrifugation the PBS was removed and replaced with 30 μl/well and left on ice for 5 minutes. 4) After 5 minutes, the lysates were frozen at −80° C. until the day of the assay. Day of Assay: Buffers and reagents were prepared according to the manufacturer's instructions. 1) 25 μl of lysate was added to the corresponding well of a 96 well black clear bottom plates. 2) 200 μl of the prepared substrate solution B was added to each well. 3) After 1 hr incubation in the dark, the relative fluorescence was determined using the following settings: 380ex/420em.
Data analysis—IC50s were determined for each test sample by using appropriate curve fits in GraphPad Prism (v.7). […]

`Cc1nc(C)c(-c2ccc([C@H]3CC[C@H](CC(=O)O)CC3)cc2)nc1C(N)=O` [DMVT-503, 2-((1R,4R)-4-(4-(6-carbamoyl-3,5-dimethylpyrazin-2-yl)phenyl)cyclohexyl)acetic acid] gave a concentration for half-maximal inhibition (IC50) in the assay with human sebocyte cell line (Homo sapiens, 72 h) of 25.2 nM. Further, in assay [1], the “cleaved caspase 3” value is recorded as “No significant cleaved caspase 3 detected” and the sebocyte apoptosis entry is on record as “did not induce sebocyte apoptosis”.
For `CC1=C(/C=C/C(C)=C/C=C/C(C)=C\C(=O)O)C(C)(C)CCC1` [Mix 13-cis-RA, 13-cis-retinoic Acid, reference compound], 829 nM corresponded to half-maximal inhibition in the assay on human sebocyte cell line (IC50). Besides, in assay [1], the “cleaved caspase 3” value is recorded as “No significant cleaved caspase 3 detected” and the sebocyte apoptosis result is on record as “did not induce sebocyte apoptosis”.

For the origin of these results see US20210260055A1, “TOPICAL FORMULATIONS OF DGAT1 INHIBITORS AND THEIR METHODS OF USE” (Dermavant Sciences GmbH, priority 2018, published 2021).
